Here are results for three compounds from ChEMBL document CHEMBL4043074, “Bortezomib inhibits mammalian carbonic anhydrases” (Bioorg Med Chem, 2017).

Among the targets are Carbonic anhydrase 6 (Homo sapiens, UniProt P23280); Carbonic anhydrase 9 (Homo sapiens, UniProt Q16790); Carbonic anhydrase 7 (Homo sapiens, UniProt P43166); Carbonic anhydrase 12 (Homo sapiens, UniProt O43570); Carbonic anhydrase 3 (Homo sapiens, UniProt P07451); Carbonic anhydrase 2 (Homo sapiens, UniProt P00918); Carbonic anhydrase 1 (Homo sapiens, UniProt P00915).
A further assay has as its target T1, Carbonic anhydrase 15 (Mus musculus, UniProt Q99N23).
T1 sequence (Q99N23 whole entry): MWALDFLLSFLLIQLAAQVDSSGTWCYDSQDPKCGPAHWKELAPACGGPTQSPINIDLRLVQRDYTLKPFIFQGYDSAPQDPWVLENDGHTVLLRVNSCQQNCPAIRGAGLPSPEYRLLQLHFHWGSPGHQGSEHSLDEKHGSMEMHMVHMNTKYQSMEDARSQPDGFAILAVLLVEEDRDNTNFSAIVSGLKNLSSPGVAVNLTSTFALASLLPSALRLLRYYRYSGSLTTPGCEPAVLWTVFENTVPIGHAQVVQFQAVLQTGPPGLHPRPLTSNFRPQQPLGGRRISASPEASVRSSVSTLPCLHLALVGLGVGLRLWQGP

The target of another assay is Carbonic anhydrase 13 (Homo sapiens, UniProt Q8N1Q1). Briefly: Inhibition of human CA13 by stopped-flow CO2 hydrase assay.
A further assay concerns the target Carbonic anhydrase 4 (Homo sapiens, UniProt P22748). Briefly: Inhibition of human CA4 by stopped-flow CO2 hydrase assay.
The target in assay [1] is Carbonic anhydrase 5A, mitochondrial (Homo sapiens, UniProt P35218). Briefly: Inhibition of human CA5A by stopped-flow CO2 hydrase assay.
The target of assay [2] is Carbonic anhydrase 5B, mitochondrial (Homo sapiens, UniProt Q9Y2D0). Briefly: Inhibition of human CA5B by stopped-flow CO2 hydrase assay.
A further assay deals with Carbonic anhydrase 14 (Homo sapiens, UniProt Q9ULX7). Briefly: Inhibition of human CA14 by stopped-flow CO2 hydrase assay.
Sequence of Carbonic anhydrase 14 (Q9ULX7 whole entry): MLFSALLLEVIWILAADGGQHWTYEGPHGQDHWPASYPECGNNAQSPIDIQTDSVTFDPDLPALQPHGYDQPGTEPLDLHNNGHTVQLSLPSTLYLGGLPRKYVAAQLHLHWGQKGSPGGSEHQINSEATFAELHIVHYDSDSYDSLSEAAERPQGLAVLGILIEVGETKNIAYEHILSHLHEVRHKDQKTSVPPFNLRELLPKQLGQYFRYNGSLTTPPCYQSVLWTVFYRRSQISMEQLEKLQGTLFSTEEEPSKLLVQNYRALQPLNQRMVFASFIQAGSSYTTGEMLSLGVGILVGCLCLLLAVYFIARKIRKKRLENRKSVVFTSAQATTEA

Sequence of Carbonic anhydrase 12 (O43570 whole entry): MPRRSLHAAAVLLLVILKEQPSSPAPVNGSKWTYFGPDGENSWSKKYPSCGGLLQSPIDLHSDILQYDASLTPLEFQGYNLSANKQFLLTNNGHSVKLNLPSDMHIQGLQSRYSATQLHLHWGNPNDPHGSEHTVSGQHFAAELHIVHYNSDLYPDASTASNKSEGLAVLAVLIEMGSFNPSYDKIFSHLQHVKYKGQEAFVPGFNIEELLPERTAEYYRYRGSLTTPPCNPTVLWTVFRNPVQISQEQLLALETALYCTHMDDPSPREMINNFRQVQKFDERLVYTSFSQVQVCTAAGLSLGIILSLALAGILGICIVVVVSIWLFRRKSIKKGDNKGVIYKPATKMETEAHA
Sequence of Carbonic anhydrase 3 (P07451 whole entry): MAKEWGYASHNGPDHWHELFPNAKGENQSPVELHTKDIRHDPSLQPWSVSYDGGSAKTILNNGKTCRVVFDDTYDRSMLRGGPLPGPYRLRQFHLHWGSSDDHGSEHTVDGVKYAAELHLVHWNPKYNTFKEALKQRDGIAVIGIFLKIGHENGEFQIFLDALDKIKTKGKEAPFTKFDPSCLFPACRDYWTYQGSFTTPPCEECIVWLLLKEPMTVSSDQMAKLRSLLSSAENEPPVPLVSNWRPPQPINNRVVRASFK
Sequence of Carbonic anhydrase 5B, mitochondrial (Q9Y2D0 whole entry): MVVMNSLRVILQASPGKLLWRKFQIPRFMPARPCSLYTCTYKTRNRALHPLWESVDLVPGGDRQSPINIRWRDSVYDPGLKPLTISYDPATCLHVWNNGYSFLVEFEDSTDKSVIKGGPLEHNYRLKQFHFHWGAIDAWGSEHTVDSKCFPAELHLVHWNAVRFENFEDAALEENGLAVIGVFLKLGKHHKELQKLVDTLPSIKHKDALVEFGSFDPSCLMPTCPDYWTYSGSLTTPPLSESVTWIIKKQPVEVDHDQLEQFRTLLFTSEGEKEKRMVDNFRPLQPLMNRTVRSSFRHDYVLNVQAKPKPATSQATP
Sequence of Carbonic anhydrase 1 (P00915 whole entry): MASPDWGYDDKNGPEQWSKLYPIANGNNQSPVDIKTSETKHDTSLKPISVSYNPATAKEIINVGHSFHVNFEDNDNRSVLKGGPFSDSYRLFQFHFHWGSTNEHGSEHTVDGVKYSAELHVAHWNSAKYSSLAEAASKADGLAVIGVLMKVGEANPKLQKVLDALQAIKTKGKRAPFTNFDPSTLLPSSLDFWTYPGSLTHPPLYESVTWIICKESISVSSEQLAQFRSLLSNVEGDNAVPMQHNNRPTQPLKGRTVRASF
Sequence of Carbonic anhydrase 5A, mitochondrial (P35218 whole entry): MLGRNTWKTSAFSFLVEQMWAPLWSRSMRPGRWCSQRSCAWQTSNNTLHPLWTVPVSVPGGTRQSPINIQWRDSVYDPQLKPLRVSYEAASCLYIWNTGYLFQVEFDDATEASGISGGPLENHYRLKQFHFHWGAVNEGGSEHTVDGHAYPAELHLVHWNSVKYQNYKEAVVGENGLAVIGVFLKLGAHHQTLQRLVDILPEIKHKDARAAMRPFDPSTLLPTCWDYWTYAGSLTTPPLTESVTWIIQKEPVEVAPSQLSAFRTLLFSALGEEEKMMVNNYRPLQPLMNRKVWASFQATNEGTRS
Sequence of Carbonic anhydrase 13 (Q8N1Q1 whole entry): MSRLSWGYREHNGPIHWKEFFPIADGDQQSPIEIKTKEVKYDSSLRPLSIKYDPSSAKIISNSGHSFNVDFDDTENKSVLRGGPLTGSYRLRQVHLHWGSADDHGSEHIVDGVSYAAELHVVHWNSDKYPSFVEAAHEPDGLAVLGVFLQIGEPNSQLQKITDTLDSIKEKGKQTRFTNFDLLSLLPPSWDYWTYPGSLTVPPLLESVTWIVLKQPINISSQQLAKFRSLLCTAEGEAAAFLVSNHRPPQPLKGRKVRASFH
Sequence of Carbonic anhydrase 6 (P23280 whole entry): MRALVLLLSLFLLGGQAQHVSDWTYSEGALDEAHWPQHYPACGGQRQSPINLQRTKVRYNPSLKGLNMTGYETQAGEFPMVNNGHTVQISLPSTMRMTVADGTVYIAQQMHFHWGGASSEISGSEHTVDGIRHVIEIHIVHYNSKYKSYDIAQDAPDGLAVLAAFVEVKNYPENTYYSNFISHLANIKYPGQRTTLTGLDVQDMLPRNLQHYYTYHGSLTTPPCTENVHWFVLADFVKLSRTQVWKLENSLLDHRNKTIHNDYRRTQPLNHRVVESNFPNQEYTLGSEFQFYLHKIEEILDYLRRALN
Sequence of Carbonic anhydrase 7 (P43166 whole entry): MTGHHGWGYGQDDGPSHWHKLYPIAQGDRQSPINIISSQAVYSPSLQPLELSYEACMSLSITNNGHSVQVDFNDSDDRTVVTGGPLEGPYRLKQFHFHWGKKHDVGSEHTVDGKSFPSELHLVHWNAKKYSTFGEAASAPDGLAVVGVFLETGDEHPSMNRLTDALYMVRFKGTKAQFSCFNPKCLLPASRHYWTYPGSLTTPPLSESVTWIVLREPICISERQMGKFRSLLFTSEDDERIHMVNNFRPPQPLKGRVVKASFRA
Sequence of Carbonic anhydrase 4 (P22748 whole entry): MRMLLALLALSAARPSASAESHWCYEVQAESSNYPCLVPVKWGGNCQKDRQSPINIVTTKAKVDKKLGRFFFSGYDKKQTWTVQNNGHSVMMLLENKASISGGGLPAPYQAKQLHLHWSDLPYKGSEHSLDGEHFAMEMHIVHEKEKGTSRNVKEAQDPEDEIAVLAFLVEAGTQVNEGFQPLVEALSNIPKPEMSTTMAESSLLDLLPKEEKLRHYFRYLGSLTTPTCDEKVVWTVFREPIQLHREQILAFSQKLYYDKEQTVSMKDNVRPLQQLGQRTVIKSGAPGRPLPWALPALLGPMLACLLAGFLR
Description for Carbonic anhydrase 12: Inhibition of human CA12 by stopped-flow CO2 hydrase assay
Description for Carbonic anhydrase 15: Inhibition of mouse CA15 by stopped-flow CO2 hydrase assay
Description for Carbonic anhydrase 2: Inhibition of human CA2 by stopped-flow CO2 hydrase assay
Description for Carbonic anhydrase 3: Inhibition of human CA3 by stopped-flow CO2 hydrase assay
Description for Carbonic anhydrase 6: Inhibition of human CA6 by stopped-flow CO2 hydrase assay
Description for Carbonic anhydrase 7: Inhibition of human CA7 by stopped-flow CO2 hydrase assay
Description for Carbonic anhydrase 9: Inhibition of human CA9 by stopped-flow CO2 hydrase assay

Turning to `CC(C)C[C@H](NC(=O)[C@H](Cc1ccccc1)NC(=O)c1cnccn1)B(O)O` [BORTEZOMIB], the inhibitory constant (Ki) on Carbonic anhydrase 15 amounted to 2680 nM; at Carbonic anhydrase 13 it was 8.45 µM; at Carbonic anhydrase 6, 4.38 µM; on Carbonic anhydrase 4, 6.51 µM; in assay [1], 6.92 µM; at Carbonic anhydrase 9, 3.38 µM. Further, the Ki at Carbonic anhydrase 7 was found to be 6.94 µM; in [2] it was 6.83 µM; at Carbonic anhydrase 14, 3.28 µM; on Carbonic anhydrase 12 it was 5.87 µM; on Carbonic anhydrase 3 it was 4.57 µM.
In the case of `OB1OCc2ccccc21` [BENZOXABOROLE], the Ki on Carbonic anhydrase 2 was 8.18 µM; on Carbonic anhydrase 9, greater than 50 µM; at Carbonic anhydrase 1 it was 5.69 µM; at Carbonic anhydrase 12, greater than 50 µM.
For `OB(O)c1ccccc1` [PHENYLBORONIC ACID], the Ki (at Carbonic anhydrase 13; on Carbonic anhydrase 6; in [1]; on Carbonic anhydrase 2; at Carbonic anhydrase 9; on Carbonic anhydrase 1) was greater than 50 µM throughout. Besides, the Ki (in assay [2]; on Carbonic anhydrase 14; at Carbonic anhydrase 12; at Carbonic anhydrase 3) was greater than 50 µM throughout.
